PubChem BioAssay AID1198 (NMMLSC, 2008)
Calls of active or inactive are those of the source.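 Rule for the calls: active = EC50 under 10 microM for raising side scatter, a sign of cell differentiation; inactive = the rest, including fits that never converged.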

tested on: LNCaP side scatter shift, flow cytometry, 4 days; test: LNCaP side scatter shift induction by compounds – cell-based, flow cytometry, side scatter granularity, dose response (AID 1198); details: not given

| Structure (SMILES) | EC50 |
| --- | --- |
| CN1CCN(CCCNC(=O)c2cc3c(-c4ccc(Cl)cc4)nn(C)c3s2)CC1 | 6.41 µM |
| Oc1c(CN2CCCCC2)cc(COCc2ccccc2)c2cccnc12 | 3.81 µM |
| CN(C)c1ccc(CNC2CC(C)(C)NC(C)(C)C2)cc1 | 8.74 µM |
| Cc1ccc(OCC(O)Cn2c(=N)n(CCN3CCCCC3)c3ccccc32)cc1 (stereo not given) | 4.11 µM |
| CN(CC(O)COc1ccc(OCC(O)CN(C)C2CCCCC2)cc1)C1CCCCC1 (stereo not given) | 4.32 µM |
| Cc1cc(N2CCN(C)CC2)nc2ccc(NC(=O)c3ccc4c(c3)OCO4)cc12 | 10.4 µM (inactive) |

tested on: not listed separately; test: as above; details: LNCaP side scatter shift, flow cytometry, 4 days; at 30 µM (top of the series)

| Structure (SMILES) | side scatter activation |
| --- | --- |
| CN(C)CCCN1c2ccccc2CCc2ccc(Cl)cc21 | 73% (inactive) |
| Cc1ccc(C)c(N2CCN(CCCNC(=O)Cn3cc4c(n3)CCCCC4)CC2)c1 | 0% (inactive) |
| COc1ccccc1N1CCN(Cc2cc(Br)c(O)c3ncccc23)CC1 | 1.98% (inactive) |
| COc1ccc(Nc2nc(N)nc(CN3CCC(Cc4ccccc4)CC3)n2)cc1 | 73% (inactive) |
| CC(C)(C)c1ccc(C(O)CCCN2CCC(C(O)(c3ccccc3)c3ccccc3)CC2)cc1 (stereo not given) | 0% (inactive) |
| CN(CCNC(=O)C1CC(=O)N(c2ccc(F)c(Cl)c2)C1)Cc1ccccc1 (stereo not given) | 44.4% (inactive) |
| CCCS(=O)(=O)N1CCCC(C(=O)NCCCN2CCN(c3ccc(F)cc3)CC2)C1 (stereo not given) | 1.98% (inactive) |
| O=c1cc(-c2ccccc2)[nH]c2ccccc12 | 1.98% (inactive) |
| Clc1ccc(COC(Cn2ccnc2)c2ccc(Cl)cc2Cl)cc1 (stereo not given) | 0% (inactive) |
| CC(C)N1CCC2(CC1)N=C(c1ccc3c(c1)OCO3)CC(c1cc(Cl)ccc1O)N2 (stereo not given) | 1.98% (inactive) |
| CCN(CC)CCNC(=O)c1cc2c(-c3ccc(Cl)cc3)nn(C)c2s1 | 31.1% (inactive) |
| CCOC(=O)c1ccccc1NC(=O)Cn1c(-c2nonc2N)nc2ccccc21 | 44.4% (inactive) |
| Cc1nc2ncnn2c(C)c1CCC(=O)NCCCN1CCN(c2cccc(Cl)c2)CC1 | 84.3% (inactive) |
| Cn1nc(-c2ccc(Cl)cc2)c2cc(C(=O)NCCCN3CCCC3)sc21 | 84.3% (inactive) |
| CCCOc1ccccc1C1CC(=O)Nc2cc3c(cc21)OCO3 (stereo not given) | 0% (inactive) |
| CCCc1cc(-c2n[nH]c(C)c2-c2ccc(C(=O)OCC)o2)c(O)cc1O | 1.98% (inactive) |
| Cc1ccccc1-c1nc(CN2CCC(C(=O)NCCCN3CC(C)CC(C)C3)CC2)c(C)o1 (stereo not given) | 31.1% (inactive) |
| COc1ccc(N2CCN(CCCNC(=O)CCCn3c(=O)[nH]c4ccsc4c3=O)CC2)cc1 | 1.98% (inactive) |
| CCc1ccc(-c2nc(CN3CCC(C(=O)NCc4ccc(F)cc4)CC3)c(C)o2)cc1 | 0% (inactive) |
| Cc1cc2c(=O)n(CC(=O)N3CCN(c4ccccc4)CC3)cnc2s1 | 84.3% (inactive) |

| Structure (SMILES) | side scatter activation |
| --- | --- |
| CCN(CCNC(=O)C1CCN(Cc2nc(-c3cccc(Cl)c3)oc2C)CC1)c1ccccc1 | 0% (inactive) |
| Cc1ccccc1-c1nc(CN2CCC(C(=O)NCCCN3CCCC3)CC2)c(C)o1 | 1.98% (inactive) |
| Cc1ccc(Nc2cc(=O)n(C3CCCCC3)c(=O)[nH]2)cc1C | 0% (inactive) |
| CCn1c(=N)n(CC(O)COc2cccc(C)c2)c2ccccc21 (stereo not given) | 0% (inactive) |
| Cc1ccc(Cl)cc1N1CCN(C(=O)c2cc3c(=O)n(C)c4ccccc4c3n2C)CC1 | 0% (inactive) |
| Nc1ccc(-n2ccnc2)cc1 | 84.3% (inactive) |
| COc1ccc(CCN2CCC(Nc3nc4ccccc4n3Cc3ccc(F)cc3)CC2)cc1 | 40.2% (inactive) |
| CC1CCCCN1CCNC(=O)c1cc2c(-c3ccccc3F)nn(C)c2s1 (stereo not given) | 84.3% (inactive) |
| CCn1c(=O)cc(SCC(=O)NCCN2CCN(Cc3ccccc3)CC2)c2ccccc21 | 73% (inactive) |
| COc1ccc(-c2noc(CCC(=O)NCCCN3CCC(Cc4ccccc4)CC3)n2)cc1 | 1.98% (inactive) |
| CCN(CC)CCNC(=O)c1ccc(N2CCCCC2)c(NS(=O)(=O)c2ccc(C)cc2)c1 | 44.4% (inactive) |
| O=C(Cn1cc2c(n1)CCCC2)NCCCN1CCN(c2ccccc2F)CC1 | 31.1% (inactive) |
| COc1ccc(-c2oc3ncn(CCN4CCOCC4)c(=N)c3c2-c2ccc(OC)cc2)cc1 | 44.4% (inactive) |
| COc1ccc2cc3cc(C(=O)Nc4ccccc4N4CCN(C)CC4)oc3nc2c1 | 44.4% (inactive) |
| O=C(c1ccccc1)c1ccc(N2CCNCC2)cc1 | 73% (inactive) |
| CCOC(=O)c1[nH]c(C)c(C(=O)N2CCc3ccccc32)c1C | 1.98% (inactive) |
| COc1ccccc1N1CCN(c2nc3ccccc3nc2C(C#N)C(=O)OC(C)C)CC1 (stereo not given) | 44.4% (inactive) |
| Cn1c(=O)cc(SCC(=O)NCCCN2CCN(c3ccccc3F)CC2)c2ccccc21 | 31.1% (inactive) |
| Cc1oc(-c2ccc(Cl)cc2)nc1CN1CCC(C(=O)N2CCN(Cc3ccccc3)CC2)CC1 | 31.1% (inactive) |
| O=S1(=O)C=C(Sc2nc3ccccc3s2)c2ccccc21 | 0% (inactive) |

| Structure (SMILES) | side scatter activation |
| --- | --- |
| CCOC(=O)c1c(C)n(C)c2ccc(OCC(O)CNC(CC)CO)cc12 (stereo not given) | 38.5% (inactive) |
| C[C@H]1CCC/C=C/C2C[C@H](O)CC2[C@H](O)/C=C/C(=O)O1 (stereo not given in full) | 0% (inactive) |
| Cc1ccccc1-c1nc(CN2CCC(C(=O)NCc3cccnc3)CC2)c(C)o1 | 38.5% (inactive) |
| CCN1CCN(c2cc(C)c3cc(NC(=O)c4ccc(Br)o4)ccc3n2)CC1 | 73% (inactive) |
| COc1ccc(Cc2nc(-c3ccc(-n4cccc4)cc3)no2)cc1OC | 1.98% (inactive) |
| CCN(CC)CCCNC(=O)c1cc2c(-c3ccc(Cl)cc3)nn(C)c2s1 | 84.3% (inactive) |
| COc1ccc(-c2cc(C(F)(F)F)nc(N3CCN(Cc4ccccc4)CC3)n2)cc1OC | 44.4% (inactive) |
| CCN1CCCC1CNC(=O)c1cc2c(-c3ccc(Cl)cc3)nn(C)c2s1 (stereo not given) | 84.3% (inactive) |
| CCOc1ccc(NC(=O)COc2nsnc2N2CCCCC2)cc1 | 0% (inactive) |
| O=C(NCCCN1CCN(c2ccc(F)cc2)CC1)c1cccc(N2CCCC2=O)c1 | 73% (inactive) |
| O=C(NCCCN1CCN(c2cccc(Cl)c2)CC1)c1cccc(N2CCCC2=O)c1 | 38.5% (inactive) |
| CCOC(=O)c1c(C)[nH]c(C(=O)COC(=O)C2CC2C)c1C (stereo not given) | 73% (inactive) |
| Cc1ccc(CNc2nc3ccccc3n3nnnc23)cc1 | 40.2% (inactive) |
| Cc1ccccc1CS(=O)(=O)CCC(=O)NCCCN1CCN(c2ccccc2F)CC1 | 31.1% (inactive) |
| COc1ccc(N2CCN(CCCNC(=O)c3cc4sccc4n3C)CC2)cc1 | 40.2% (inactive) |
| Cc1cc(C)nc(N2CCC(C(=O)Nc3ccc(Oc4ccccc4)cc3)CC2)n1 | 40.2% (inactive) |
| Cn1c(=O)[nH]c(=O)c2c1nc(Br)n2CCCSc1nc2ccccc2o1 | 1.98% (inactive) |
| O=C(CCN1C(=O)COc2ccccc21)NCCCN1CCN(c2ccc(F)cc2)CC1 | 40.2% (inactive) |
| Cn1c(=O)cc(OCC(=O)NCCCN2CCN(c3ccccc3F)CC2)c2ccccc21 | 73% (inactive) |
